Measurements as given in patent publication US20020137929A1, “1 - (3-heterocyclylphenyl) isothiourea, -isourea, -guanidine and -amidine herbicidal agents” (Intellectual Property Department, BASF Aktiengesellschaft, priority 1998, published 2002).

How the values were obtained:
[1] = system: TRZAWR (Wheat, Winter, cv Riband); experiment: Preemergence herbicidal evaluation; type: in vivo, Triticum aestivum; conditions: preemergence, rated 4-5 weeks after treatment, 0-9 scale
Procedure, shortened: (§1)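 Steps: mix seeds into potting soil; plant atop ~1 inch soil; spray compound in aqueous acetone (~0.0156-0.500 kg/ha equivalent); maintain in greenhouse with watering; rate visually 0-9 versus control at 4-5 weeks.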

ORYSAT (Rice, Tebonnet) = experiment: Postemergence herbicidal evaluation; type: in vivo, Oryza sativa, (L.) Tebonnet; conditions: postemergence
Procedure, shortened: (§2)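 Each compound, dispersed in an acetone/water mix (50/50) carrying 0.5% TWEEN 20, is nozzle-sprayed at 40 psi on approximately two-week-old seedlings at about 0.0156–0.500 kg/ha. Plants are assessed 4–5 weeks afterward on a 0–9 scale relative to control; duplicate tests are averaged.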

ECHCG (Barnyardgrass) [2] = experiment: Preemergence herbicidal evaluation; type: in vivo, Echinochloa crus-galli; conditions: preemergence, rated 4-5 weeks after treatment, 0-9 scale
Procedure, shortened: as §1

ZEAMX (Corn, Field) [3] = experiment: Preemergence herbicidal evaluation; type: in vivo, Zea mays; conditions: preemergence, rated 4-5 weeks after treatment, 0-9 scale
Procedure, shortened: as §1

[4] = system: CHEAL (Lambsquarters, Common); experiment: Postemergence herbicidal evaluation; type: in vivo, Chenopodium album; conditions: postemergence
Procedure, shortened: as §2

CYPIR (Rice Flatsedge) = experiment: Postemergence weed control under flooded paddy conditions; type: in vivo, Cyperus iria; conditions: postemergence weeds, rated 3 to 4 weeks after treatment
Procedure, shortened: (§3)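 Injury ratings (0–9 scale covering stand, vigor, malformation, size, chlorosis and overall appearance versus control) were made three to four weeks after treatment. Test material, about 0.0313 to 0.500 kg/ha a.i. in 50/50 v/v aqueous/acetone, was added to flood water 1.5 to 3 cm deep over 3 to 5 cm weeds and 1.5 to 2.5 leaf rice.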

CYPSE (Flatsedge) = experiment: as above; type: in vivo, Cyperus serotinus; conditions: postemergence weeds, rated 3 to 4 weeks after treatment
Procedure, shortened: as §3

[5] = system: IPOHE (Morningglory, Ivyleaf); experiment: Preemergence herbicidal evaluation; type: in vivo, Ipomoea hederacea; conditions: preemergence, rated 4-5 weeks after treatment, 0-9 scale
Procedure, shortened: as §1

ECHCG (Barnyardgrass) [6] = experiment: Postemergence herbicidal evaluation; type: in vivo, Echinochloa crus-galli; conditions: postemergence
Procedure, shortened: as §2

ABUTH (Velvetleaf) [7] = experiment: Preemergence herbicidal evaluation; type: in vivo, Abutilon theophrasti; conditions: preemergence, rated 4-5 weeks after treatment, 0-9 scale
Procedure, shortened: as §1

[8] = system: IPOHE (Morningglory, Ivyleaf); experiment: Postemergence herbicidal evaluation; type: in vivo, Ipomoea hederacea; conditions: postemergence
Procedure, shortened: as §2

ABUTH (Velvetleaf) [9] = experiment: Postemergence herbicidal evaluation; type: in vivo, Abutilon theophrasti; conditions: postemergence
Procedure, shortened: as §2

ZEAMX (Corn, Field) [10] = experiment: Postemergence herbicidal evaluation; type: in vivo, Zea mays; conditions: postemergence
Procedure, shortened: as §2

CASOB (Sicklepod) = experiment: Preemergence herbicidal evaluation; type: in vivo, Cassia obtusifolia; conditions: preemergence, rated 4-5 weeks after treatment, 0-9 scale
Procedure, shortened: as §1

SETVI (Foxtail, Green) = experiment: Postemergence herbicidal evaluation; type: in vivo, Setaria viridis; conditions: postemergence
Procedure, shortened: as §2

[11] = system: CHEAL (Lambsquarters, Common); experiment: Preemergence herbicidal evaluation; type: in vivo, Chenopodium album; conditions: preemergence, rated 4-5 weeks after treatment, 0-9 scale
Procedure, shortened: as §1

[12] = system: GLXMAW (Soybean, Williams); experiment: Preemergence herbicidal evaluation; type: in vivo, Glycine max, (L.) Merr. cv Williams; conditions: preemergence, rated 4-5 weeks after treatment, 0-9 scale
Procedure, shortened: as §1

CN1C(=O)C(CC(=O)NS(=O)(=O)c2ccccc2)SC1=Nc1cc(-n2c(=O)cc(C(F)(F)F)n(C)c2=O)c(F)cc1Cl (centres unmarked) [Compound 102, 2-{{2-Chloro-5-[3,6-dihydro-3-methyl-2,6-dioxo-4-(trifluoromethyl)-1(2H)-pyrimidinyl]-4-fluorophenyl}imino}-3-methyl-4-oxo-N-(phenylsulfonyl)-5-thiazolidineacetamide]
TRZAWR rating ([1]; 0.0156 kg/ha): 0.0 | TRZAWR rating ([1]; 0.0313 kg/ha): 0.0 | TRZAWR rating ([1]; 0.0625 kg/ha): 0.0 | TRZAWR rating ([1]; 0.2500 kg/ha): 0.0 | TRZAWR rating ([1]; 0.5000 kg/ha): 1.0 | Herbicidal rating ORYSAT (ORYSAT (Rice, Tebonnet); rate 0.0156 kg/ha): 2.5 | Herbicidal rating ORYSAT (ORYSAT (Rice, Tebonnet); rate 0.0313 kg/ha): 3.0 | Herbicidal rating ORYSAT (ORYSAT (Rice, Tebonnet); rate 0.0625 kg/ha): 3.0 | Herbicidal rating ORYSAT (ORYSAT (Rice, Tebonnet); rate 0.1250 kg/ha): 3.0 | ECHCG rating (ECHCG (Barnyardgrass) [2]; 0.0156 kg/ha): 0.0 | ECHCG rating (ECHCG (Barnyardgrass) [2]; 0.0313 kg/ha): 0.0 | ECHCG rating (ECHCG (Barnyardgrass) [2]; 0.0625 kg/ha): 0.0 | ECHCG rating (ECHCG (Barnyardgrass) [2]; 0.2500 kg/ha): 0.0 | ECHCG rating (ECHCG (Barnyardgrass) [2]; 0.5000 kg/ha): 0.0 | ZEAMX rating (ZEAMX (Corn, Field) [3]; 0.0156 kg/ha): 0.0 | ZEAMX rating (ZEAMX (Corn, Field) [3]; 0.0313 kg/ha): 0.0 | ZEAMX rating (ZEAMX (Corn, Field) [3]; 0.0625 kg/ha): 0.0 | ZEAMX rating (ZEAMX (Corn, Field) [3]; 0.2500 kg/ha): 0.0 | ZEAMX rating (ZEAMX (Corn, Field) [3]; 0.5000 kg/ha): 1.0 | Herbicidal rating CHEAL ([4]; rate 0.0156 kg/ha): 3.0 | Herbicidal rating CHEAL ([4]; rate 0.0313 kg/ha): 4.0 | Herbicidal rating CHEAL ([4]; rate 0.0625 kg/ha): 6.0 | Herbicidal rating CHEAL ([4]; rate 0.1250 kg/ha): 7.0 | Herbicidal rating CYPIR (CYPIR (Rice Flatsedge); Rate 0.2500 kg/ha): 2.0 | Herbicidal rating CYPIR (CYPIR (Rice Flatsedge); Rate 0.5000 kg/ha): 6.0 | Herbicidal rating CYPSE (CYPSE (Flatsedge); Rate 0.2500 kg/ha): 0.0 | Herbicidal rating CYPSE (CYPSE (Flatsedge); Rate 0.5000 kg/ha): 0.0 | IPOHE rating ([5]; 0.0156 kg/ha): 0.0 | IPOHE rating ([5]; 0.0313 kg/ha): 0.0 | IPOHE rating ([5]; 0.0625 kg/ha): 0.0 | IPOHE rating ([5]; 0.2500 kg/ha): 1.0 | IPOHE rating ([5]; 0.5000 kg/ha): 9.0 | Herbicidal rating ECHCG (ECHCG (Barnyardgrass) [6]; rate 0.0156 kg/ha): 0.0 | Herbicidal rating ECHCG (ECHCG (Barnyardgrass) [6]; rate 0.0313 kg/ha): 1.0 | Herbicidal rating ECHCG (ECHCG (Barnyardgrass) [6]; rate 0.0625 kg/ha): 2.0 | Herbicidal rating ECHCG (ECHCG (Barnyardgrass) [6]; rate 0.1250 kg/ha): 6.0 | ABUTH rating (ABUTH (Velvetleaf) [7]; 0.0156 kg/ha): 0.0 | ABUTH rating (ABUTH (Velvetleaf) [7]; 0.0313 kg/ha): 0.0 | ABUTH rating (ABUTH (Velvetleaf) [7]; 0.0625 kg/ha): 9.0 | ABUTH rating (ABUTH (Velvetleaf) [7]; 0.2500 kg/ha): 6.0 | ABUTH rating (ABUTH (Velvetleaf) [7]; 0.5000 kg/ha): 9.0 | Herbicidal rating IPOHE ([8]; rate 0.0156 kg/ha): 9.0 | Herbicidal rating IPOHE ([8]; rate 0.0313 kg/ha): 9.0 | Herbicidal rating IPOHE ([8]; rate 0.0625 kg/ha): 9.0 | Herbicidal rating IPOHE ([8]; rate 0.1250 kg/ha): 9.0 | Herbicidal rating ABUTH (ABUTH (Velvetleaf) [9]; rate 0.0156 kg/ha): 7.0 | Herbicidal rating ABUTH (ABUTH (Velvetleaf) [9]; rate 0.0313 kg/ha): 9.0 | Herbicidal rating ABUTH (ABUTH (Velvetleaf) [9]; rate 0.0625 kg/ha): 9.0 | Herbicidal rating ABUTH (ABUTH (Velvetleaf) [9]; rate 0.1250 kg/ha): 9.0 | Herbicidal rating ZEAMX (ZEAMX (Corn, Field) [10]; rate 0.0156 kg/ha): 4.5 | Herbicidal rating ZEAMX (ZEAMX (Corn, Field) [10]; rate 0.0313 kg/ha): 5.0 | Herbicidal rating ZEAMX (ZEAMX (Corn, Field) [10]; rate 0.0625 kg/ha): 5.5 | Herbicidal rating ZEAMX (ZEAMX (Corn, Field) [10]; rate 0.1250 kg/ha): 6.5 | CASOB rating (CASOB (Sicklepod); 0.0156 kg/ha): 0.0 | CASOB rating (CASOB (Sicklepod); 0.0313 kg/ha): 0.0 | CASOB rating (CASOB (Sicklepod); 0.0625 kg/ha): 0.0 | CASOB rating (CASOB (Sicklepod); 0.2500 kg/ha): 0.0 | CASOB rating (CASOB (Sicklepod); 0.5000 kg/ha): 4.0 | Herbicidal rating SETVI (SETVI (Foxtail, Green); rate 0.0156 kg/ha): 0.0 | Herbicidal rating SETVI (SETVI (Foxtail, Green); rate 0.0313 kg/ha): 1.0 | Herbicidal rating SETVI (SETVI (Foxtail, Green); rate 0.0625 kg/ha): 2.0 | Herbicidal rating SETVI (SETVI (Foxtail, Green); rate 0.1250 kg/ha): 4.0 | CHEAL rating ([11]; 0.0313 kg/ha): 6.0 | CHEAL rating ([11]; 0.0625 kg/ha): 5.0 | CHEAL rating ([11]; 0.2500 kg/ha): 1.0 | CHEAL rating ([11]; 0.5000 kg/ha): 9.0 | GLXMAW rating ([12]; 0.0156 kg/ha): 0.0 | GLXMAW rating ([12]; 0.0313 kg/ha): 0.0 | GLXMAW rating ([12]; 0.0625 kg/ha): 0.0 | GLXMAW rating ([12]; 0.2500 kg/ha): 1.0 | GLXMAW rating ([12]; 0.5000 kg/ha): 4.0
